For data set [1] the following is noted: background; cited from earlier work.
The test system of the next data set is MKN45 cells. The experiment in a line: Internalization assay using Cell Discoverer (pHrodo labeled antibodies). It is filed as cell-based, human. The source says:
A relevant characteristic of an ADC is its internalization into a target-expressing cell and lysosomes, and thus internalization is a relevant property of antibodies to be used as part of ADCs. Antibody internalization rate into the late endosome and lysosome (low pH vesicles) can be monitored by directly labeling the antibodies with a pH-sensitive dye (pHrodo) which emits strong fluorescence at a pH lower than 6.0 upon excitation. This fluorescence can be imaged in the Cell-Discoverer7 (Zeiss) and internalization rate can be calculated.
To analyze the internalization rates of several antibodies, MKN45 cells were seeded in a 96 well, dark, flat clear bottom plate (Cellvis) at 25,000 cells/well. Cells were cultivated over night with 100 μl/well of RMPI-1640+10% FBS (Thermo). Cell media was removed, and cells were stained with 100 μl of 10 μg/ml Hoechst dye diluted in PBS×1 for 15 min at room temperature (RT) in the dark. Cells were then washed twice with PBS×1. […]
Internalization of pHrodo labeled antibodies into the late endosomes and lysosomes of cells was imaged by Cell-Discoverer7 (Zeiss) using fluorescence at excitation of 567 nm and emission detector of 592/25 nm. […]
Fluorescence of each well was recorded every 20 min for 20 h. Analysis of Sum Fluorescence Intensity per cell (SFI) was calculated by the Zen Software (ZEN3.1) and Excel analysis of linear regression.

The subject of data set [2] is CEACAM5 from Macaca fascicularis. Conditions: background; cited from earlier work.
The subject of another data set is SK-CO-1. Put plainly: Viability assay (Cell Titer-Glo). It is filed as cell-based. Conditions: Homo sapiens.
In a further data set the test system is MDA-MB-468. The experiment in a line: Viability assay (Cell Titer-Glo). It is filed as cell-based. As to conditions: Homo sapiens, Table 2. Background: ATP-based viability assays read luminescence as a measure of living cells.
The subject of a further data set is SNU-16. The experiment in a line: Viability assay (Cell Titer-Glo). It is filed as cell-based, human.
For the next data set, the system named is MKN-45. The experiment in a line: Viability assay (Cell Titer-Glo). It is filed as cell-based. Conditions: Homo sapiens.
The subject of the next data set is LS174T. Put plainly: Viability assay (Cell Titer-Glo). It is filed as cell-based. Conditions: Homo sapiens.
In another data set the test system is MDA-MB-231. The experiment in a line: Viability assay (Cell Titer-Glo). Conditions: Homo sapiens, MDA-MB-231, 144 h; Table 2; six days; geometric mean; N ≥ 3; CEACAM5 Negative. It is filed as cell-based.

Values joined by “and” are separate entries in the source; they are usually repeats but may differ in a detail not shown here. Equal values may be shown once.

Chain of CEACAM5 from Macaca fascicularis (as listed by the source): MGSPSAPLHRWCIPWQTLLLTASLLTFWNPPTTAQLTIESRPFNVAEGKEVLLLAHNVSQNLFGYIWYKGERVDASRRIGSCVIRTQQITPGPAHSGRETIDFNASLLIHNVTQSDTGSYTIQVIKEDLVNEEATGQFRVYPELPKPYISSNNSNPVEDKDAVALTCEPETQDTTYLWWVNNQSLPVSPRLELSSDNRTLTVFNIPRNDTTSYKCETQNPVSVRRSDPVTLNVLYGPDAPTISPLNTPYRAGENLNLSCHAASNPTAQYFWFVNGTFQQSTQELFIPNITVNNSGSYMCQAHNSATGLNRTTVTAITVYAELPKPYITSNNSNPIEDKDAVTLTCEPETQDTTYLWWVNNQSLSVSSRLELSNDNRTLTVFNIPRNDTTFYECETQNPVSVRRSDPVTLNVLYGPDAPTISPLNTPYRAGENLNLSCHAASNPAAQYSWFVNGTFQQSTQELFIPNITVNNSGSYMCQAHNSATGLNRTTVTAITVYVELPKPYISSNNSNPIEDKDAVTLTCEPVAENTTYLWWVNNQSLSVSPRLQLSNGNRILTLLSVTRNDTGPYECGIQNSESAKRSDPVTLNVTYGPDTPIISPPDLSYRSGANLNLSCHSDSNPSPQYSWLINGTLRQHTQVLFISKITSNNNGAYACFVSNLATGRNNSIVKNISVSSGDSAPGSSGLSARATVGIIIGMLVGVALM
Protocol for LS174T: (§1) Cytotoxicity effects of the ADC on the cancer cell lines were measured by cell viability assays. Cells were seeded in a volume of 90 μL in 96-well plates the day before treatment. Test compounds (ADCs or free payloads) were formulated at 10-fold the starting concentration in cell culture medium. Test compounds were serial diluted (1:4) and 10 μL of each dilution was added to the cells in triplicates. Plates were cultured at 37° C. in a CO2 incubator for six days. For cell viability measurement, Cell Titer-Glo® reagent (Promega™ Corp, Madison, WI) was added to each well, and plates processed according to the manufacturer's instructions. Luminescence signals were measured using a Varioskan plate reader (Thermo Fisher). Luminescence readings were converted to % viability relative to untreated cells. Data was fitted with non-linear regression analysis, using log (inhibitor) vs. response, variable slope, 4-parameter fit equation using GraphPad Prism. […] Geometric mean values of IC50s derived from multiple experiments were calculated.
(§2) Cytotoxicity effects of the ADC on the cancer cell lines were measured by cell viability assays. […] Luminescence signals were measured using a Varioskan plate reader (Thermo Fisher). Luminescence readings were converted to % viability relative to untreated cells. […] Geometric mean values of IC50s derived from multiple experiments were calculated.
Protocol for MDA-MB-231: as §1, §2
Protocol for MDA-MB-468: Cytotoxicity effects of the ADC on the cancer cell lines were measured by cell viability assays. Cells were seeded in a volume of 90 μL in 96-well plates the day before treatment. Test compounds (ADCs or free payloads) were formulated at 10-fold the starting concentration in cell culture medium. Test compounds were serial diluted (1:4) and 10 μL of each dilution was added to the cells in triplicates. Plates were cultured at 37° C. in a CO2 incubator for six days. For cell viability measurement, Cell Titer-Glo® reagent (Promega™ Corp, Madison, WI) was added to each well, and plates processed according to the manufacturer's instructions. Luminescence signals were measured using a Varioskan plate reader (Thermo Fisher). Luminescence readings were converted to % viability relative to untreated cells. Data was fitted with non-linear regression analysis, using log (inhibitor) vs. response, variable slope, 4-parameter fit equation using GraphPad Prism. Data is shown as % relative cell viability vs. molar compound concentration, error bars indicating standard deviation (SD) of triplicates. Geometric mean values of IC50s derived from multiple experiments were calculated.
Protocol for MKN-45: as §1, §2
Protocol for SK-CO-1: as §1, §2
Protocol for SNU-16: as §1, §2

For the compound Labetuzumab govitecan, the “stability of the linker structure after parenteral application” value in [1] is given as “significant instability of the linker structure”.

Consider “hmn-14: known anti-CEACAM5 antibody as in labetuzumab govitecan; HC SEQ ID NO: 27, LC SEQ ID NO: 28 [reference compound]”, for which the average binding rate in the data set on MKN45 cells (average of the three slopes of the linear part of the curve) is 22268±3060. Moreover, in the data set on MKN45 cells (linear part (700 to 1200 minutes) of fluorescence intensity per cell, 100 nM pHrodo labeled antibody, single wells), the “Slope of Curve” value is 23701 and 24350 and 18754. Further, in data set [2], the “cross-reactivity with CEACAM5 from Macaca fascicularis” value was “not cross-reacting with CEACAM5 from Macaca fascicularis”.

For the compound `CC[C@@]1(O)C(=O)OCc2c1cc1n(c2=O)Cc2c-1nc1cc(F)c(C)c3c1c2[C@@H](N)CC3` [PAYLOAD, (1S,9S)-1-Amino-9-ethyl-5-fluoro-1,2,3,9,12,15-hexahydro-9-hydroxy-4-methyl-10H,13H-benzo(de)pyrano(3′,4′:6,7)indolizino(1,2-b)quinoline-10,13-dione, reference compound], the IC50 (as a rule, the concentration that gives 50% inhibition) in the data set on SK-CO-1 (SK-CO-1, 144 h, Table 2, six days, geometric mean, N ≥ 4, CEACAM5 Positive) amounted to 0.25 nM; in the data set with MDA-MB-468 (MDA-MB-468, 144 h, six days, geometric mean, N ≥ 2, CEACAM5 Negative) it was 0.21 nM; in the data set with SNU-16 (Homo sapiens, SNU-16, 144 h, Table 2, six days, geometric mean, N ≥ 3, CEACAM5 Positive), 0.44 nM; with MKN-45 (MKN-45, 144 h, Table 2, six days, geometric mean, N ≥ 3, CEACAM5 Positive), 0.89 nM; with LS174T (144 h, Table 2, six days, geometric mean, N ≥ 3, CEACAM5 Positive), 0.53 nM; in the data set with MDA-MB-231 it was 0.93 nM. Also, the Emax with SK-CO-1 (SK-CO-1, Table 2, at the highest tested compound concentration, read-out: SK-CO-1 maximal effect compared to untreated controls) was -99%; with MDA-MB-468 (MDA-MB-468, at the highest tested compound concentration, read-out: MDA-MB-468 maximal effect compared to untreated controls), -99%; in the data set on MKN-45 (MKN-45, Table 2, at the highest tested compound concentration, read-out: MKN-45 maximal effect compared to untreated controls) it was -96%; with LS174T (Table 2, at the highest tested compound concentration, read-out: LS174T maximal effect compared to untreated controls), -88%. In the data set on SNU-16 (Table 3, at the highest tested compound concentration), the “SNU-16 maximal effect compared to untreated controls” value is “(−99%)”.

The values are drawn from US20250179210A1, “ANTI-CEACAM5 ANTIBODIES AND CONJUGATES AND USES THEREOF” (Merck Patent GmbH, priority 2022, published 2025).
